According to the NIST ThermoML archive (doi:10.1021/je9005618):
± gives the expanded uncertainty stated by the source.

Assays:
[1] = refractive index (Na D-line) (dimensionless); settings: 101.33 kPa, Liquid, Standard Abbe refractometry
[2] = 101.33 kPa, Liquid; for speed of sound: Pulse-echo method; for mass density: Vibrating tube method

| SMILES | refractive index ([1]; 288.15 K) | refractive index ([1]; 298.15 K) | refractive index ([1]; 308.15 K) | refractive index ([1]; 318.15 K) | refractive index ([1]; 328.15 K) | speed of sound ([2]; 278.15 K) [m/s] | mass density ([2]; 278.15 K) [kg/m3] | speed of sound ([2]; 288.15 K) [m/s] | mass density ([2]; 288.15 K) [kg/m3] | speed of sound ([2]; 298.15 K) [m/s] | mass density ([2]; 298.15 K) [kg/m3] | speed of sound ([2]; 308.15 K) [m/s] | mass density ([2]; 308.15 K) [kg/m3] | speed of sound ([2]; 318.15 K) [m/s] | mass density ([2]; 318.15 K) [kg/m3] | speed of sound ([2]; 328.15 K) [m/s] | mass density ([2]; 328.15 K) [kg/m3] |
| --- | --- | --- | --- | --- | --- | --- | --- | --- | --- | --- | --- | --- | --- | --- | --- | --- | --- |
| CCn1cc[n+](C)c1.O=S(=O)([O-])C(F)(F)F [1-ethyl-3-methylimidazolium trifluoromethanesulfonate] | 1.43599 ± 0.00051 | 1.4332 ± 0.00051 | 1.4304 ± 0.00051 | 1.42767 ± 0.00051 | 1.42494 ± 0.00051 | – | – | – | – | – | – | – | – | – | – | – | – |
| CC(C)=O [acetone] | 1.36146 ± 0.001 | 1.35597 ± 0.001 | 1.35054 ± 0.001 | 1.34491 ± 0.001 | – | 1256.5 ± 1.2 | 807.41 ± 0.24 | 1210.7 ± 1.2 | 796.14 ± 0.24 | 1165 ± 1.2 | 784.76 ± 0.24 | 1118.5 ± 1.2 | 773.21 ± 0.24 | 1073.7 ± 1.1 | 761.47 ± 0.24 | – | – |
| CCOC(C)=O [ethyl acetate] | 1.37519 ± 0.00037 | 1.36994 ± 0.00037 | 1.3646 ± 0.00037 | 1.35919 ± 0.00037 | 1.35368 ± 0.00037 | 1231 ± 1.2 | 918.5 ± 0.23 | 1185.2 ± 1.2 | 906.48 ± 0.23 | 1140 ± 1.2 | 894.33 ± 0.23 | 1095.3 ± 1.2 | 882.02 ± 0.23 | 1051 ± 1.1 | 869.52 ± 0.23 | 1007.4 ± 1.1 | 856.85 ± 0.23 |
| COC(C)=O [methyl ethanoate] | 1.36414 ± 0.00033 | 1.35881 ± 0.00033 | 1.35367 ± 0.00033 | 1.34823 ± 0.00033 | – | 1243.5 ± 0.81 | 953.04 ± 0.09 | 1196.8 ± 0.8 | 940.12 ± 0.1 | 1150.7 ± 0.78 | 927.01 ± 0.1 | 1104.7 ± 0.77 | 913.68 ± 0.11 | 1059.2 ± 0.75 | 900.13 ± 0.11 | – | – |
